PMC11702208 (RSC Advances, 2025)

Tested on: T-47D cells
Assay: Cell cycle analysis
Assay type: cell-based
Details: compound at IC50 concentration

SMILES: CCN(CC)c1ccc(C=NNC(=O)CSc2nc3ccccc3c(=O)n2Cc2ccc(S(N)(=O)=O)cc2)c(O)c1 [Compound 5, 4-((2-((2-(2-(4-(Diethylamino)-2-hydroxybenzylidene)hydrazineyl)-2-oxoethyl)thio)-4-oxoquinazolin-3(4H)-yl)methyl)benzenesulfonamide]
- %G0-G1: 46.31%
- %G2-M: 26.3%
- %S: 20.9%
- %G2-M (listed as Five): 26.27%
- %S (listed as Five): 27.42%
